From publication PMC3006138, “Fexinidazole – A New Oral Nitroimidazole Drug Candidate Entering Clinical Development for the Treatment of Sleeping Sickness” (PLoS Neglected Tropical Diseases, 2010)
Several values for one entry are separate records, joined by “and”; a condition that tells them apart may be missing. Equal values may be shown once. Read-outs that look alike come from different tables or passages of the source.

Assays:
[1] = tested on: T. b. gambiense (STIB 930); experiment: In vitro trypanocidal assay (Alamar Blue); assay type: cell-based, Trypanosoma brucei gambiense; conditions: Trypanosoma brucei, 72 h; read-out: IC50
In short: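 Parasites at 3×10^4/mL in modified MEM with 15% heat-inactivated horse serum, 72 h at 37°C, 5% CO2, with Alamar Blue for final 3 h; fluorescence ex 536/em 588 nm, IC50 from sigmoidal curves. Cytotoxicity: L-6 rat skeletal myoblasts at 4×10^4/mL, same conditions.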

[2] = tested on: L-6 rat myoblast cells; experiment: Cytotoxicity assay; assay type: cell-based; conditions: 72 h, read-out: IC50
Protocol: 10 µL of Alamar Blue was added for the final 3 h to determine viability. […] The IC50 values were calculated from the sigmoidal inhibition curves. For cytotoxicity, 4×10^4/mL L-6 rat skeletal myoblast cells were used, and incubations and assessments carried out as above.

[3] = Mouse single-dose plasma pharmacokinetics; assay type: in vivo; conditions: for AUC(0-t) / Cmax / AUC(0-inf) / Tmax / half-life / bioavailability: plasma; for bioavailability: fexinidazole 25 mg/kg po vs 1 mg/kg iv
Protocol: Blood samples were taken via into heparinised collection tubes and, following centrifugation, plasma was removed and stored frozen until required for assay.
All PK evaluations were carried out using validated high performance liquid chromatography (HPLC) and LC-MS assays, as per standard operating procedures of the laboratories involved.
One mouse PK and brain sampling study was carried out by BioDynamics Ltd., Rushden, UK, according to internal Standard Operating Procedures as a non-GLP regulated study, and animals were maintained as required by the “Code of practice for the housing and care of animals used in scientific procedures” (Home Office, London, 1989).
(§1) BioDynamics Study No: DND/01
(§2) Two groups of female mice were dosed as follows:
(§3) Number Treatment Dose (mg/kg) Route
(§4) All doses are expressed as free base
(§5) Intravenous doses were administered into a lateral tail vein using an appropriately sized syringe and 25G needle and the oral formulation by oral gavage using a polypropylene gavage tube. All doses were given as a single bolus dose at a constant dose volume of 10.0 mL/kg.
(§6) 1.6 Blood sample collection
(§7) At each sampling time point, three animals in each treatment group were deeply anaesthetised using isoflurane and blood samples (approximately 1 mL) taken into individual heparinised tubes by cardiac puncture, following which the animals were killed by cervical fracture. Samples were collected at the following times post-dose:
(§8) Following collection, the blood samples were centrifuged (approximately 10000 g, 2 min at 4 °C) and the plasma retained as one aliquot at approximately -70°C prior to analysis of test material concentrations at BioDynamics by LC-MS/MS.
(§9) 1.7 Collection of terminal brain samples
(§10) Following collection of the terminal blood sample the cranium of each mouse was carefully opened and the brain removed. Excess blood was washed from the brain with distilled water and any excess fluid blotted on absorbent paper. The brain was then snap frozen using liquid nitrogen and placed into a suitably labelled container and stored frozen at approximately -70°C pending analysis.
(§11) All of the plasma samples together with the brains from the 15 minute time point were analysed for concentrations of the test material and its sulfone and sulfoxide metabolites. In addition the brains from the 5 and 30 minute time points for the intravenously treated and the 30 and 60 minute time points for the orally treated animals were analysed for concentrations of Fexinidazole and its sulfone and sulfoxide metabolites using an LC-MS/MS method developed at BioDynamics.
(§12) All samples were treated as temperature sensitive. Blood samples were collected onto wet ice, followed by centrifugation at 4 °C. Plasma and brain samples were snap frozen on dry ice (plasma) or liquid nitrogen (brains) prior to long term storage at less than -70 °C pending analysis.
Summed transitions were used to enhance sensitivity. No instability of the test materials was noted during the course of analysis or on re-injection of the samples into the mass spectrometer under the […]
3. Pharmacokinetic analysis
The plasma concentration vs time curves obtained following intravenous and oral administration of the test compounds to female mice were analysed using WinNonLin (Version 4.1, Scientific Consulting
Inc. USA). The kinetic data were characterised by a non-compartmental analysis (NCA).
The following pharmacokinetic parameters were derived from the profiles: maximum peak plasma concentration (Cmax); the time of maximum observed concentration (Tmax); the terminal half life (T½), and area under the plasma concentration curve (AUC), 3.1.1 Area under the curve (AUC)
The AUC was determined using the linear/log trapezoidal method. A value of zero was used for any plasma concentrations recorded as below the limits of quantification (LLOQ). The AUCinf (observed) was calculated as the area under the curve from the time of dosing extrapolated to time infinity based on the observed concentrations. The AUClast was also determined. […]

[4] = Mouse brain concentrations; assay type: in vivo
Protocol: Following sacrifice, the cranium of mice was opened and the brain removed. Excess blood was washed from the brain with distilled water and any excess fluid blotted on absorbent paper. The brain was then snap frozen using liquid nitrogen and placed into a suitably labelled container and stored at approximately −70°C, pending analysis. Brains were homogenized and extracted samples were prepared appropriately for analysis via liquid chromatography-mass spectrometry (LC-MS).
as §1, §2, §3, §4, §5, §6, §7, §8, §9, §10, §11, §12

[5] = One-electron reduction potential by pulse radiolysis; assay type: physicochemical
Protocol: One-electron reduction potentials were determined by pulse radiolysis following an established procedure.

[6] = female, NMRI, mouse, fexinidazole 1 mg/kg iv
[7] = female, NMRI, mouse, fexinidazole 25 mg/kg po

With `CSc1ccc(OCc2ncc([N+](=O)[O-])n2C)cc1` [Fexinidazole, 1-methyl-2-((p-(methylthio)phenoxy)methyl)-5-nitroimidazole] the IC50 [1] was 0.16 µg/mL to 0.36 µg/mL and 580 nM to 1.29 µM, the IC50 [2] was > 90 µg/mL and > 322 µM and the clinical signs ([3]; 1 mg/kg iv or 25 mg/kg po) was “No clinical signs were observed”. The AUC(0-t) ([3]; female, NMRI, mouse, iv, 1 mg/kg, fexinidazole 1 mg/kg iv, read-out: AUC0-24) was 41 ng·h/mL, the Cmax ([3]; female, NMRI, mouse, iv, 1 mg/kg, fexinidazole 1 mg/kg iv, read-out: Cmax) was 164 ng/mL and the Cmax ([3]; female, NMRI, mouse, po, 25 mg/kg, fexinidazole 25 mg/kg po, female NMRI mice, read-out: Cmax) was 500 ng/mL. For the same compound, the AUC(0-t) ([3]; female, NMRI, mouse, po, 25 mg/kg, fexinidazole 25 mg/kg po, read-out: AUC0–24) was 424 ng·h/mL, the AUC(0-inf) [3, 6] was 42 ng·h/mL and the Tmax [3, 6] was 5 min. It also gave a half-life [3, 6] of 6 min, an AUC(0-inf) [3, 7] of 439 ng·h/mL and a Tmax [3, 7] of 15 min. It also gave a half-life [3, 7] of 48 min, a bioavailability ([3]; female, NMRI, mouse) of 41.4% and a bioavailability ([3]; female, mouse) of 41%. It also gave a Cmax ([3]; fexinidazole 25 mg/kg po, female NMRI mice) of 500 ng/mL, a concentration at 5 min ([4]; female, NMRI, mouse, brain homogenate, intravenous, 1 mg/kg, fexinidazole 1 mg/kg iv, 5 min, read-out: Brain homogenate concentration) of 92.5 ng/mL and a concentration at 15 min ([4]; female, NMRI, mouse, brain homogenate, intravenous, 1 mg/kg, fexinidazole 1 mg/kg iv, 15 min, read-out: Brain homogenate concentration) of 21.3 ng/mL. The concentration at 30 min ([4]; female, NMRI, mouse, brain homogenate, intravenous, 1 mg/kg, fexinidazole 1 mg/kg iv, 30 min, read-out: Brain homogenate concentration) was 12.1 ng/mL, the concentration at 15 min ([4]; female, NMRI, mouse, brain homogenate, oral, 25 mg/kg, fexinidazole 25 mg/kg po, 15 min, read-out: Brain homogenate concentration) was 379 ng/mL and the concentration at 60 min ([4]; female, NMRI, mouse, brain homogenate, oral, 25 mg/kg, fexinidazole 25 mg/kg po, 60 min, read-out: Brain homogenate concentration) was 254 ng/mL. For the same compound, the concentration at 5 min ([4]; female, NMRI, mouse, brain, intravenous, 1 mg/kg, fexinidazole 1 mg/kg iv, 5 min, read-out: Brain concentration) was 277 ng/g, the concentration at 15 min ([4]; female, NMRI, mouse, brain, intravenous, 1 mg/kg, fexinidazole 1 mg/kg iv, 15 min, read-out: Brain concentration) was 63.8 ng/g and the concentration at 30 min ([4]; female, NMRI, mouse, brain, intravenous, 1 mg/kg, fexinidazole 1 mg/kg iv, 30 min, read-out: Brain concentration) was 36.2 ng/g. It also gave a concentration at 15 min ([4]; female, NMRI, mouse, brain, oral, 25 mg/kg, fexinidazole 25 mg/kg po, 15 min, read-out: Brain concentration) of 1140 ng/g, a concentration at 30 min ([4]; female, NMRI, mouse, brain, oral, 25 mg/kg, fexinidazole 25 mg/kg po, 30 min, read-out: Brain concentration) of 800 ng/g and a concentration at 30 min ([4]; female, NMRI, mouse, brain, oral, 25 mg/kg, fexinidazole 25 mg/kg po, 30 min, read-out: Brain homogenate concentration) of 266 ng/mL. It also gave a concentration at 60 min ([4]; female, NMRI, mouse, brain, oral, 25 mg/kg, fexinidazole 25 mg/kg po, 60 min, read-out: Brain concentration) of 763 ng/g, a Kp at 5 min ([4]; female, NMRI, mouse, brain, iv 1 mg/kg, 5 min, read-out: Mean plasma:brain ratio (plasma = 1.00)) of 0.56 and a Kp at 15 min ([4]; female, NMRI, mouse, brain, iv 1 mg/kg, 15 min, read-out: Mean plasma:brain ratio (plasma = 1.00)) of 0.76. The Kp at 30 min ([4]; female, NMRI, mouse, brain, iv 1 mg/kg, 30 min, read-out: Mean plasma:brain ratio (plasma = 1.00)) was 1.03, the Kp at 15 min ([4]; female, NMRI, mouse, brain, po 25 mg/kg, 15 min, read-out: Mean plasma:brain ratio (plasma = 1.00)) was 0.76 and the Kp at 30 min ([4]; female, NMRI, mouse, brain, po 25 mg/kg, 30 min, read-out: Mean plasma:brain ratio (plasma = 1.00)) was 1.16. The Kp at 60 min ([4]; female, NMRI, mouse, brain, po 25 mg/kg, 60 min, read-out: Mean plasma:brain ratio (plasma = 1.00)) was 1.22, the Brain concentration ([4]; fexinidazole 25 mg/kg po, 15 min) was 1136 ± 54.1 ng/g and the Brain concentration ([4]; fexinidazole 25 mg/kg po, 30 min) was 800 ± 92.6 ng/g. The Brain concentration ([4]; fexinidazole 25 mg/kg po, 60 min) was 763 ± 90.7 ng/g and the “single electron redox potential” value [5] was −511 mV.
